Values quoted from earlier work as cited in patent publication EP0594592B1, “A GROWTH FACTOR IN […] ARTIFICIAL TRANSPLANTS” (Strid, Lars, priority 1990, dated 1997).

Tests used:
blood platelets = conditions: result in words
[1] = system: macrophages, monocytes, mast cells and capillary endothelial cells; conditions: result in words
thromboxane = conditions: result in words
[2] = on a molar basis

copper complex of the tripeptide glycyl-L-histidyl-L-lysine [GHK-Cu^2+]
aggregation of blood platelets (blood platelets): inhibits | fibroblasts synthesis of collagen (fibroblasts; at 10^-9M, result in words): almost doubles | increase in collagen synthesis (fibroblasts; cultures of fibroblasts, at 10^-9M): about 80% | peptide concentration at which stimulation of collagen synthesis is observed (as low as) (fibroblasts; cultures of fibroblasts, lowest concentration with stimulation): 10^-12 M | peptide concentration of maximum stimulation of collagen synthesis (fibroblasts; cultures of fibroblasts, maximal activity): 10^-9 M | chemoattractive effect on cells necessary for wound-healing [1]: chemoattractive effect | effect on the hormone thromboxane (thromboxane): inhibits | superoxide dismutase-like activity, rate constant relative to enzymatic Cu,Zn-superoxide dismutase [2]: about 25%
